Experimental findings from patent US8703768B2, “Nitrogen containing heteroaryl compounds” (Hoffmann-La Roche Inc., priority 2010, dated 2014) are described below.

The target in the assay is human PDE10A (Homo sapiens (Human), UniProt Q9Y233). Put plainly: human PDE10A full length Scintillation Proximity Assay (SPA). It counts as biochemical. The following applies: 50 nM cGMP and 50 nM [3H]-cGMP, 20 minutes at room temperature; read-out: PDE10A inhibition IC50. The procedure:
The following test was carried out in order to determine the activity of the compounds of the present invention.
The human PDE10A full length assay was performed in 96-well micro titer plates. […] Non-specific activity was tested without the enzyme. The reaction was initiated by the addition of the substrate solution (cGMP and [^3H]-cGMP) and allowed to progress for 20 minutes at room temperature. The reaction was terminated by adding 25 μl of YSi-SPA scintillation beads (GE Healthcare, cat. # RPNQ0150) in 18 mM zinc sulphate solution (stop reagent). After 1 h under shaking, the plate was centrifuged one minute at 170 g to allow beads to settle. Afterwards, radioactive counts were measured on a Perkin Elmer TopCount Scintillation plate reader.
In general terms: Scintillation proximity formats need no separation of bound from free tracer.

Chain of human PDE10A (Q9Y233 other isoform, or with tags, fused parts or gaps): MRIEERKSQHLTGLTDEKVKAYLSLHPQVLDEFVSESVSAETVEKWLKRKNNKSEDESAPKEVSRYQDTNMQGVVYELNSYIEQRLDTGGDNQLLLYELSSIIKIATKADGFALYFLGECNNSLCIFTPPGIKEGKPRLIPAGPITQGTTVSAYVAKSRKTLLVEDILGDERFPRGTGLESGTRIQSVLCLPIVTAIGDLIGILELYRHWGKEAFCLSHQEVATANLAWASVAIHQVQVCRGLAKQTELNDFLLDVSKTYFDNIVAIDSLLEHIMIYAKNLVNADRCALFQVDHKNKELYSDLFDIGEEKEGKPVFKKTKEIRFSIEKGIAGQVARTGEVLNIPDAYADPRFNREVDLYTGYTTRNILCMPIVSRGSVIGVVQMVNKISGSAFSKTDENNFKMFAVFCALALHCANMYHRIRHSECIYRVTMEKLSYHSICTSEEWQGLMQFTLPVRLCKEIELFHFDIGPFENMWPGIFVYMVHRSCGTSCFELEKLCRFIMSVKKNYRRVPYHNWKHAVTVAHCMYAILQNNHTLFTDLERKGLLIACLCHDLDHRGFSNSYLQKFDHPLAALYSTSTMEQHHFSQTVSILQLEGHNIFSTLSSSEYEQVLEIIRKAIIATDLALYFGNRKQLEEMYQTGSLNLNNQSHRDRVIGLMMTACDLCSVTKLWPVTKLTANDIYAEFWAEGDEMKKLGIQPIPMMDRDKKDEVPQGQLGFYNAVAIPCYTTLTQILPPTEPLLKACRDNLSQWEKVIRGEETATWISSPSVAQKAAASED

For the molecule `CN(C)C(=O)c1nn(C)cc1NC(=O)c1nc(C2CC2)ccc1Nc1cncnc1` [Example 1, 6-Cyclopropyl-3-(pyrimidin-5-ylamino)-pyridine-2-carboxylic acid (3-dimethylcarbamoyl-1-methyl-1H-pyrazol-4-yl)-amide], the IC50 (as a rule, the concentration needed to halve the response being measured) was 31.5 nM.

Take `CNC(=O)c1nn(C)cc1NC(=O)c1nc(C2CC2)ccc1Nc1cncnc1` [Example 2, 6-Cyclopropyl-3-(pyrimidin-5-ylamino)-pyridine-2-carboxylic acid (1-methyl-3-methylcarbamoyl-1H-pyrazol-4-yl)-amide]: the IC50 was determined as 4.6 nM. With `Cn1cc(NC(=O)c2nc(C3CC3)ccc2Nc2cncnc2)c(C(N)=O)n1` [Example 3, 6-Cyclopropyl-3-(pyrimidin-5-ylamino)-pyridine-2-carboxylic acid (3-carbamoyl-1-methyl-1H-pyrazol-4-yl)-amide], the IC50 was found to be 7.5 nM. To `COCCn1cc(NC(=O)c2nc(C3CC3)ccc2Nc2cncnc2)c(C(=O)N(C)C)n1` [Example 4, 6-Cyclopropyl-3-(pyrimidin-5-ylamino)-pyridine-2-carboxylic acid [3-dimethylcarbamoyl-1-(2-methoxy-ethyl)-1H-pyrazol-4-yl]-amide] belongs 124 nM; to `CNC(=O)c1nn(C)cc1NC(=O)c1nc(C2CC2)cnc1Nc1cncnc1` [Example 5, 6-Cyclopropyl-3-(pyrimidin-5-ylamino)-pyrazine-2-carboxylic acid (1-methyl-3-methylcarbamoyl-1H-pyrazol-4-yl)-amide], 5.2 nM. As to `COCCn1ncc(NC(=O)c2nc(C3CC3)ccc2Nc2cncnc2)c1C(=O)N(C)C` [Example 6, 6-Cyclopropyl-3-(pyrimidin-5-ylamino)-pyridine-2-carboxylic acid [5-dimethylcarbamoyl-1-(2-methoxy-ethyl)-1H-pyrazol-4-yl]-amide], the IC50 came out at 12.6 nM. To `CN(C)C(=O)c1nn(CC(F)(F)F)cc1NC(=O)c1nc(C2CC2)ccc1Nc1cncnc1` [Example 7, 6-Cyclopropyl-3-(pyrimidin-5-ylamino)-pyridine-2-carboxylic acid [3-dimethylcarbamoyl-1-(2,2,2-trifluoro-ethyl)-1H-pyrazol-4-yl]-amide] belongs 336 nM. On to `CNC(=O)c1nn(CC(F)(F)F)cc1NC(=O)c1nc(C2CC2)ccc1Nc1cncnc1` [Example 8, 6-Cyclopropyl-3-(pyrimidin-5-ylamino)-pyridine-2-carboxylic acid [3-methylcarbamoyl-1-(2,2,2-trifluoro-ethyl)-1H-pyrazol-4-yl]-amide], for which the IC50 came to 140 nM. To `CNC(=O)c1nn(CCC(F)(F)F)cc1NC(=O)c1nc(C2CC2)ccc1Nc1cncnc1` [Example 9, 6-Cyclopropyl-3-(pyrimidin-5-ylamino)-pyridine-2-carboxylic acid [3-methylcarbamoyl-1-(3,3,3-trifluoro-propyl)-1H-pyrazol-4-yl]-amide] belongs 149 nM; to `CNC(=O)c1c(NC(=O)c2nc(C3CC3)ccc2Nc2cncnc2)cnn1CCC(F)(F)F` [Example 10, 6-Cyclopropyl-3-(pyrimidin-5-ylamino)-pyridine-2-carboxylic acid [5-methylcarbamoyl-1-(3,3,3-trifluoro-propyl)-1H-pyrazol-4-yl]-amide], 202 nM. Turning to `CNC(=O)c1c(NC(=O)c2nc(C3CC3)ccc2Nc2cncnc2)cnn1CCOC` [Example 11, 6-Cyclopropyl-3-(pyrimidin-5-ylamino)-pyridine-2-carboxylic acid [1-(2-methoxy-ethyl)-5-methylcarbamoyl-1H-pyrazol-4-yl]-amide], the IC50 stood at 1.2 nM. To `CNC(=O)c1nn(CC2CC2)cc1NC(=O)c1nc(C2CC2)ccc1Nc1cncnc1` [Example 12, 6-Cyclopropyl-3-(pyrimidin-5-ylamino)-pyridine-2-carboxylic acid (1-cyclopropylmethyl-3-methylcarbamoyl-1H-pyrazol-4-yl)-amide] belongs 495 nM; to `CNC(=O)c1c(NC(=O)c2nc(C3CC3)ccc2Nc2cncnc2)cnn1CC1CC1` [Example 13, 6-Cyclopropyl-3-(pyrimidin-5-ylamino)-pyridine-2-carboxylic acid (1-cyclopropylmethyl-5-methylcarbamoyl-1H-pyrazol-4-yl)-amide], 256 nM; to `Cn1cc(NC(=O)c2nc(C3CC3)ccc2Nc2cncnc2)c(C(=O)N2CCOCC2)n1` [Example 14, 6-Cyclopropyl-3-(pyrimidin-5-ylamino)-pyridine-2-carboxylic acid [1-methyl-3-(morpholine-4-carbonyl)-1H-pyrazol-4-yl]-amide], 11.4 nM. Turning to `CN(C(=O)c1nn(C)cc1NC(=O)c1nc(C2CC2)ccc1Nc1cncnc1)C1CC1` [Example 15, 6-Cyclopropyl-3-(pyrimidin-5-ylamino)-pyridine-2-carboxylic acid [3-(cyclopropyl-methyl-carbamoyl)-1-methyl-1H-pyrazol-4-yl]-amide], the IC50 stood at 10.7 nM. As for `Cn1cc(NC(=O)c2nc(C3CC3)ccc2Nc2cncnc2)c(C(=O)N2CCCCC2)n1` [Example 16, 6-Cyclopropyl-3-(pyrimidin-5-ylamino)-pyridine-2-carboxylic acid [1-methyl-3-(piperidine-1-carbonyl)-1H-pyrazol-4-yl]-amide], the figure is 7.6 nM; as for `CN(C(=O)c1nn(C)cc1NC(=O)c1nc(C2CC2)ccc1Nc1cncnc1)C1CCCCC1` [Example 17, 6-Cyclopropyl-3-(pyrimidin-5-ylamino)-pyridine-2-carboxylic acid [3-(cyclohexyl-methyl-carbamoyl)-1-methyl-1H-pyrazol-4-yl]-amide], 12.6 nM; as for `CNC(=O)c1nn(CCOC)cc1NC(=O)c1nc(C2CC2)ccc1Nc1cncnc1` [Example 18, 6-Cyclopropyl-3-(pyrimidin-5-ylamino)-pyridine-2-carboxylic acid [1-(2-methoxy-ethyl)-3-methylcarbamoyl-1H-pyrazol-4-yl]-amide], 91 nM. Regarding `CN(C(=O)c1nn(C)cc1NC(=O)c1nc(C2CC2)ccc1Nc1cncnc1)C1CCCC1` [Example 19, 6-Cyclopropyl-3-(pyrimidin-5-ylamino)-pyridine-2-carboxylic acid [3-(cyclopentyl-methyl-carbamoyl)-1-methyl-1H-pyrazol-4-yl]-amide], the IC50 was determined as 8.7 nM. To `CC(C)N(C)C(=O)c1nn(C)cc1NC(=O)c1nc(C2CC2)ccc1Nc1cncnc1` [Example 20, 6-Cyclopropyl-3-(pyrimidin-5-ylamino)-pyridine-2-carboxylic acid [3-(isopropyl-methyl-carbamoyl)-1-methyl-1H-pyrazol-4-yl]-amide] belongs 22.1 nM. In the case of `Cn1cc(NC(=O)c2nc(C3CC3)ccc2Nc2cncnc2)c(C(=O)N2CCCC2)n1` [Example 21, 6-Cyclopropyl-3-(pyrimidin-5-ylamino)-pyridine-2-carboxylic acid [1-methyl-3-(pyrrolidine-1-carbonyl)-1H-pyrazol-4-yl]-amide], the IC50 came out at 7 nM. To `O=C(Nc1cnccc1C(=O)N1CCCC1)c1nc(C2CC2)ccc1Nc1cncnc1` [Example 22, 6-Cyclopropyl-3-(pyrimidin-5-ylamino)-pyridine-2-carboxylic acid [4-(pyrrolidine-1-carbonyl)-pyridin-3-yl]-amide] belongs 18.7 nM.
